Experimental data taken from patent publication US20030144190A1, “Method of modulating and antiapoptotic and antiapoptotic pathways in cells” (priority 2003, published 2003).

Test system: CREF/RasV12
Assay: Apoptosis by flow cytometry (cells with hypodiploid DNA content) in Ras-transformed fibroblasts
Type: cell-based, rat

Structure (SMILES)	lovastatin-induced apoptosis in the presence of translational inhibitors	apoptosis observed in the presence of lovastatin alone (5 μM lovastatin, 24 h) [%]
C[C@@H]1C[C@@H]([C@H](O)CC2CC(=O)NC(=O)C2)C(=O)[C@@H](C)C1 [cycloheximide]	blocked apoptosis	–
CC[C@H](C)C(=O)O[C@H]1C[C@@H](C)C=C2C=C[C@H](C)[C@H](CC[C@@H]3C[C@@H](O)CC(=O)O3)[C@H]21 [lovastatin]	–	2 to 8
